In patent US20150366839A1, “Schisantherin A for the treatment of neurodegenerative diseases” (priority 2014, published 2015):

Tests used:
[1] = system: iNOS; assay: iNOS expression, Western blot; format: cell-based, Human
Method: (§1) After treatment, SH-SY5Y cells were washed three times with PBS and then lysis with RIPA lysis buffer containing 1% PMSF and 1% Protease Inhibitor Cocktail and incubated for 30 min on ice. Cell lysates were centrifuged at 12,500 g for 20 min at 4° C. The supernatant was separated and the amount of protein was determined using the BCA protein assay kit (Thermo Scientific Pierce, USA). Protein samples (30 μg) were separated by SDS-PAGE (10% (w/v)) polyacrylamide gel and then transferred to a polyvinylidene difluoride (PVDF) membrane (Bio-Rad, Hercules, Calif.). Subsequently, the membrane was blocked with 5% (v/v) non-fat milk in PBST (PBS containing 0.1% Tween 20) for 1 h at room temperature. The blots were incubated overnight at 4° C. with primary antibodies. […] Quantitative assessment of protein bands was done with Gel Doc™ XRS equipped with Quantity One software.
Augmented NO production subsequent to iNOS induction appears to play an important role in the initial phase of 6-OHDA-induced neuro-damage models in vitro and in vivo (Singh, Das et al. 2005; Lin, Uang et al. 2007; Shih, Chen et al. 2011). […] Expression of the total iNOS proteins were determined by Western blot analysis. […] Results of FIGS. 4A-C are expressed as a percentage of relative fluorescent intensity (RFI) of the Control group. ###P<0.005 versus control group; *p<0.05, **p<0.01 and *** p<0.005 versus 6-OHDA group. […]

[2] = system: Bax and Bcl-2; assay: Bax and Bcl-2 expression in MPP+-treated cells, Western blot; format: cell-based, Human
Method: After treatment, SH-SY5Y cells were washed three times with PBS and then lysis with RIPA lysis buffer containing 1% PMSF and 1% Protease Inhibitor Cocktail and incubated for 30 min on ice. Cell lysates were centrifuged at 12,500 g for 20 min at 4° C. The supernatant was separated and the amount of protein was determined using the BCA protein assay kit (Thermo Scientific Pierce, USA). Protein samples (30 μg) were separated by SDS-PAGE (10% (w/v)) polyacrylamide gel and then transferred to a polyvinylidene difluoride (PVDF) membrane (Bio-Rad, Hercules, Calif.). Subsequently, the membrane was blocked with 5% (v/v) non-fat milk in PBST (PBS containing 0.1% Tween 20) for 1 h at room temperature. The blots were incubated overnight at 4° C. with primary antibodies. After three washes with PBST, the membranes were incubated with horseradish peroxidase-conjugated secondary antibodies (1:2000) in PBST with 5% non-fat milk for 1 h at room temperature. After repeated washes, proteins were visualized with an ECL advanced western blotting detection kit. Photographs of protein bands were taken by a Molecular Imager ChemiDoc XRS (Bio-Rad, Hercules, Calif.). Quantitative assessment of protein bands was done with Gel Doc™ XRS equipped with Quantity One software.
To investigate whether SchiA has any effect on the expression of Bax and Bcl-2 proteins in MPP^+-induced SH-SY5Y cells, the expression levels of Bax and Bcl-2 were determined by Western blot analysis. SH-SY5Y cells were pretreated with 60 μM SchiA for 12 h before incubating with 2 mM MPP for 36 h. The expression of Bax or Bcl-2 in cell lysates was determined by Western blot analysis. […] In this study, β-actin was shown as an internal control. In FIGS. 15A-B, the Bax/Bcl-2 ratio are expressed as a percentage of that of the control group. ###P<0.005 versus control group; ***P<0.005 versus MPP group.

[3] = system: intracellular ROS in SH-SY5Y cells; assay: 6-OHDA-induced ROS accumulation (CM-H2DCFDA); format: cell-based, Human
Method: SH-SY5Y cells seeded at 96-well plates (1×10^4 cells/well) were incubated with 5 μM fluorescent probe CM-H2DCFDA at 37° C. for 20 min after treatment with SchiA or 6-OHDA. The fluorescence intensity was determined by multi-label counter at wavelengths of excitation at 493 nm and emission at 522 nm.
The generation of excess ROS by auto-oxidation of 6-OHDA, considered to be involved in 6-OHDA-induced cellular injury (Cohen and Heikkila 1974). Therefore, to examine whether SchiA prevented the production of ROS from 6-OHDA, the accumulation of ROS was measured by fluorescent probe CM-H2DCFDA in SH-SY5Y cells. The fluorescence intensity of CM-H2DCFDA was measured after SH-SY5Y cell were pretreated with different concentrations of SchiA for 12 h and then treated with or without 400 μM 6-OHDA for 4 h. The results of FIG. 3 are expressed as a percentage of that of the control group. ###P<0.005 versus control group; *p<0.05, **p<0.01 and *** p<0.005 versus 6-OHDA group.

[4] = system: caspase-3; assay: MPP+-induced caspase-3 activation, Western blot; format: cell-based, Human; details: 60 μM 12 h, then 2 mM MPP+ 36 h
Method: as §1, with “antibodies. After three washes with PBST, the membranes were incubated with horseradish peroxidase-conjugated secondary antibodies (1:2000) in PBST with 5% non-fat milk for 1 h at room temperature.” for “antibodies.”
The inventors performed Western blot to measure the expression of active-form of caspase-3 and caspase-7 in SH-SY5Y cells. […] Caspase-3 activity was expressed as units per mg protein. ###p<0.005 versus control group; *p<0.05, **p<0.01 and *** p<0.005 versus MPP+ group.

[5] = system: zebrafish larvae; format: in vivo; details: 2.5-10 μM with 250 μM 6-OHDA, 4 days, 10 min session
Method: The wild type zebrafish was used for this study.
Zebrafish behaviour was analyzed using a digital video tracking system (Viewpoint ZebraLab system). The system consists of a digital video camera connected to a computer system running the analysis software ZebraLab Man Rev 3.6B.
Moreover, 6-OHDA treatment also markedly altered the swimming behavior of zebrafish. […] Values in FIG. 9 represent the mean±SEM of 12 fish larvae per group of 3-time independent experiments. ###P<0.005 versus control group; *p<0.05, **p<0.01 and *** p<0.005 versus 6-OHDA group. […] The total swimming distance in 10 min travelled by the zebrafish larvae was decreased after exposure to 6-OHDA.

[6] = 60 μM 12 h, then 2 mM MPP+ 36 h

COc1cc2c(c(OC)c1OC)-c1c(cc3c(c1OC)OCO3)C[C@H](C)[C@](C)(O)[C@H]2OC(=O)c1ccccc1 [SchiA, Schisantherin A]
6-OHDA-induced iNOS expression ([1]; 60 μM 12 h, then 400 μM 6-OHDA 2 h): reduced the expression of iNOS induced by 6-OHDA significantly
iNOS expression, compound alone ([1]; 60 μM, without 6-OHDA): no obvious influence
MPP+-induced down-regulation of Bcl-2 expression [2, 6]: could inhibit the down-regulation of Bcl-2 expression
MPP+-induced increase of the Bax/Bcl-2 ratio [2, 6]: effectively prevented
Bax protein expression ([2]; 60 μM, compared with control group): did not changed significantly
Bcl-2 expression, compound alone ([2]; 60 μM, without MPP+): increase the expression of Bcl-2
6-OHDA-induced intracellular ROS level ([3]; 3, 6, 12, 25 and 50 μM 12 h, then 400 μM 6-OHDA 4 h): significantly reduced
intracellular ROS levels, compound alone ([3]; without 6-OHDA): no obvious effect
MPP+-induced caspase-3 activation (active form) [4]: significant decrease
6-OHDA-induced reduction of total distance of movement [5]: inhibited 6-OHDA-induced reduction of total distance of movement by zebrafish in a dose dependent manner
